Reference: the NIST ThermoML archive (doi:10.1016/j.jct.2007.08.002)
“And” between values parts separate entries of the source, which are not always exact repeats. Equal entries are not always repeated.

Assay: molar heat capacity at saturation pressure

NC12CC3CC(CC(C3)C1)C2 [tricyclo(3.3.1.1:3,7)decan-1-amine]
Settings	molar heat capacity
196.06 K, Crystal 3, Small (less than 1 g) adiabatic calorimetry	135.44 J/K/mol
197.25 K, Crystal 3, Small (less than 1 g) adiabatic calorimetry	136.86 J/K/mol
197.97 K, Crystal 3, Small (less than 1 g) adiabatic calorimetry	137.6 J/K/mol
199.25 K, Crystal 3, Small (less than 1 g) adiabatic calorimetry	139.1 J/K/mol
199.88 K, Crystal 3, Small (less than 1 g) adiabatic calorimetry	139.77 J/K/mol
200.91 K, Crystal 3, Small (less than 1 g) adiabatic calorimetry	140.93 J/K/mol
201.79 K, Crystal 3, Small (less than 1 g) adiabatic calorimetry	142.09 J/K/mol
202.24 K, Crystal 3, Small (less than 1 g) adiabatic calorimetry	142.51 J/K/mol
203.56 K, Crystal 3, Small (less than 1 g) adiabatic calorimetry	144.09 J/K/mol
204.88 K, Crystal 3, Small (less than 1 g) adiabatic calorimetry	145.75 J/K/mol
206.19 K, Crystal 3, Small (less than 1 g) adiabatic calorimetry	147.58 J/K/mol
207.51 K, Crystal 3, Small (less than 1 g) adiabatic calorimetry	149.24 J/K/mol
207.53 K, Crystal 3, Small (less than 1 g) adiabatic calorimetry	149.33 J/K/mol
208.81 K, Crystal 3, Small (less than 1 g) adiabatic calorimetry	151.16 J/K/mol
209.45 K, Crystal 3, Small (less than 1 g) adiabatic calorimetry	152.07 J/K/mol
210.11 K, Crystal 3, Small (less than 1 g) adiabatic calorimetry	152.9 J/K/mol
211.36 K, Crystal 3, Small (less than 1 g) adiabatic calorimetry	154.9 J/K/mol
211.41 K, Crystal 3, Small (less than 1 g) adiabatic calorimetry	154.9 J/K/mol
212.7 K, Crystal 3, Small (less than 1 g) adiabatic calorimetry	156.73 J/K/mol
213.28 K, Crystal 3, Small (less than 1 g) adiabatic calorimetry	157.97 J/K/mol
213.99 K, Crystal 3, Small (less than 1 g) adiabatic calorimetry	158.89 J/K/mol
215.2 K, Crystal 3, Small (less than 1 g) adiabatic calorimetry	161.05 J/K/mol
215.27 K, Crystal 3, Small (less than 1 g) adiabatic calorimetry	161.05 J/K/mol
216.55 K, Crystal 3, Small (less than 1 g) adiabatic calorimetry	163.3 J/K/mol
217.12 K, Crystal 3, Small (less than 1 g) adiabatic calorimetry	164.54 J/K/mol
217.82 K, Crystal 3, Small (less than 1 g) adiabatic calorimetry	165.71 J/K/mol
219.04 K, Crystal 3, Small (less than 1 g) adiabatic calorimetry	168.28 J/K/mol
219.1 K, Crystal 3, Small (less than 1 g) adiabatic calorimetry	168.28 J/K/mol
220.36 K, Crystal 3, Small (less than 1 g) adiabatic calorimetry	170.95 J/K/mol
220.96 K, Crystal 3, Small (less than 1 g) adiabatic calorimetry	172.36 J/K/mol
221.61 K, Crystal 3, Small (less than 1 g) adiabatic calorimetry	173.61 J/K/mol
222.86 K, Crystal 3, Small (less than 1 g) adiabatic calorimetry	176.6 J/K/mol
222.88 K, Crystal 3, Small (less than 1 g) adiabatic calorimetry	176.77 J/K/mol
224.1 K, Crystal 3, Small (less than 1 g) adiabatic calorimetry	179.84 J/K/mol
224.8 K, Crystal 3, Small (less than 1 g) adiabatic calorimetry	181.75 J/K/mol
225.33 K, Crystal 3, Small (less than 1 g) adiabatic calorimetry	183.17 J/K/mol
226.55 K, Crystal 3, Small (less than 1 g) adiabatic calorimetry	186.91 J/K/mol
226.72 K, Crystal 3, Small (less than 1 g) adiabatic calorimetry	187.57 J/K/mol
227.76 K, Crystal 3, Small (less than 1 g) adiabatic calorimetry	190.82 J/K/mol
228.63 K, Crystal 3, Small (less than 1 g) adiabatic calorimetry	194.14 J/K/mol
228.97 K, Crystal 3, Small (less than 1 g) adiabatic calorimetry	195.22 J/K/mol
230.16 K, Crystal 3, Small (less than 1 g) adiabatic calorimetry	200.21 J/K/mol
230.54 K, Crystal 3, Small (less than 1 g) adiabatic calorimetry	202.12 J/K/mol
231.34 K, Crystal 3, Small (less than 1 g) adiabatic calorimetry	205.78 J/K/mol
232.45 K, Crystal 3, Small (less than 1 g) adiabatic calorimetry	211.52 J/K/mol
232.51 K, Crystal 3, Small (less than 1 g) adiabatic calorimetry	211.69 J/K/mol
233.67 K, Crystal 3, Small (less than 1 g) adiabatic calorimetry	218.01 J/K/mol
234.36 K, Crystal 3, Small (less than 1 g) adiabatic calorimetry	222.33 J/K/mol
234.81 K, Crystal 3, Small (less than 1 g) adiabatic calorimetry	225.16 J/K/mol
235.93 K, Crystal 3, Small (less than 1 g) adiabatic calorimetry	233.22 J/K/mol
236.25 K, Crystal 3, Small (less than 1 g) adiabatic calorimetry	235.72 J/K/mol
237.04 K, Crystal 3, Small (less than 1 g) adiabatic calorimetry	242.28 J/K/mol
238.14 K, Crystal 3, Small (less than 1 g) adiabatic calorimetry	251.85 J/K/mol and 251.6 J/K/mol
239.22 K, Crystal 3, Small (less than 1 g) adiabatic calorimetry	261.49 J/K/mol
240.04 K, Crystal 3, Small (less than 1 g) adiabatic calorimetry	267.14 J/K/mol
240.28 K, Crystal 3, Small (less than 1 g) adiabatic calorimetry	268.64 J/K/mol
241.32 K, Crystal 3, Small (less than 1 g) adiabatic calorimetry	272.38 J/K/mol
241.94 K, Crystal 2	272.22 J/K/mol
242.37 K, Crystal 2	270.55 J/K/mol
243.42 K, Crystal 2	261.16 J/K/mol
243.89 K, Crystal 2	258.16 J/K/mol
244.49 K, Crystal 2	249.93 J/K/mol
245.89 K, Crystal 2	240.12 J/K/mol
247.88 K, Crystal 2	229.23 J/K/mol
249.84 K, Crystal 2	225.07 J/K/mol
251.78 K, Crystal 2	223.16 J/K/mol
253.73 K, Crystal 2	223.33 J/K/mol
255.66 K, Crystal 2	225.49 J/K/mol
257.59 K, Crystal 2	226.9 J/K/mol
259.52 K, Crystal 2	229.98 J/K/mol
261.45 K, Crystal 2	233.3 J/K/mol
263.38 K, Crystal 2	237.13 J/K/mol
265.31 K, Crystal 2	241.62 J/K/mol
267.23 K, Crystal 2	247.19 J/K/mol
269.16 K, Crystal 2	252.76 J/K/mol
271.09 K, Crystal 2	258.66 J/K/mol
273 K, Crystal 2	272.05 J/K/mol
274.91 K, Crystal 2	282.28 J/K/mol
276.81 K, Crystal 2	299.57 J/K/mol
278.68 K, Crystal 2	329.42 J/K/mol
280.53 K, Crystal 2	365.67 J/K/mol
282.42 K, Crystal 2	373.74 J/K/mol
288.85 K, Crystal 1, Small (less than 1 g) adiabatic calorimetry	291.09 J/K/mol
293.37 K, Crystal 1, Small (less than 1 g) adiabatic calorimetry	265.9 J/K/mol
295.36 K, Crystal 1, Small (less than 1 g) adiabatic calorimetry	265.81 J/K/mol
297.3 K, Crystal 1, Small (less than 1 g) adiabatic calorimetry	265.98 J/K/mol
299.23 K, Crystal 1, Small (less than 1 g) adiabatic calorimetry	266.56 J/K/mol
301.17 K, Crystal 1, Small (less than 1 g) adiabatic calorimetry	266.89 J/K/mol
303.1 K, Crystal 1, Small (less than 1 g) adiabatic calorimetry	267.48 J/K/mol
305.04 K, Crystal 1, Small (less than 1 g) adiabatic calorimetry	267.89 J/K/mol
306.98 K, Crystal 1, Small (less than 1 g) adiabatic calorimetry	268.56 J/K/mol
308.92 K, Crystal 1, Small (less than 1 g) adiabatic calorimetry	268.89 J/K/mol
309.23 K, Crystal 1, Small (less than 1 g) adiabatic calorimetry	268.97 J/K/mol
310.85 K, Crystal 1, Small (less than 1 g) adiabatic calorimetry	268.89 J/K/mol
311.41 K, Crystal 1, Small (less than 1 g) adiabatic calorimetry	269.47 J/K/mol
312.79 K, Crystal 1, Small (less than 1 g) adiabatic calorimetry	269.39 J/K/mol
313.59 K, Crystal 1, Small (less than 1 g) adiabatic calorimetry	269.97 J/K/mol
314.73 K, Crystal 1, Small (less than 1 g) adiabatic calorimetry	269.97 J/K/mol
315.77 K, Crystal 1, Small (less than 1 g) adiabatic calorimetry	270.14 J/K/mol
316.67 K, Crystal 1, Small (less than 1 g) adiabatic calorimetry	270.05 J/K/mol
317.96 K, Crystal 1, Small (less than 1 g) adiabatic calorimetry	270.55 J/K/mol
318.61 K, Crystal 1, Small (less than 1 g) adiabatic calorimetry	270.8 J/K/mol
320.14 K, Crystal 1, Small (less than 1 g) adiabatic calorimetry	270.97 J/K/mol
320.55 K, Crystal 1, Small (less than 1 g) adiabatic calorimetry	271.05 J/K/mol
322.32 K, Crystal 1, Small (less than 1 g) adiabatic calorimetry	271.47 J/K/mol
324.44 K, Crystal 1, Small (less than 1 g) adiabatic calorimetry	271.8 J/K/mol
324.5 K, Crystal 1, Small (less than 1 g) adiabatic calorimetry	272.13 J/K/mol
326.39 K, Crystal 1, Small (less than 1 g) adiabatic calorimetry	272.55 J/K/mol
326.7 K, Crystal 1, Small (less than 1 g) adiabatic calorimetry	272.05 J/K/mol
328.33 K, Crystal 1, Small (less than 1 g) adiabatic calorimetry	272.71 J/K/mol
328.88 K, Crystal 1, Small (less than 1 g) adiabatic calorimetry	272.88 J/K/mol
330.27 K, Crystal 1, Small (less than 1 g) adiabatic calorimetry	273.05 J/K/mol
331.06 K, Crystal 1, Small (less than 1 g) adiabatic calorimetry	273.71 J/K/mol
332.22 K, Crystal 1, Small (less than 1 g) adiabatic calorimetry	273.55 J/K/mol
333.25 K, Crystal 1, Small (less than 1 g) adiabatic calorimetry	273.88 J/K/mol
334.16 K, Crystal 1, Small (less than 1 g) adiabatic calorimetry	273.8 J/K/mol
335.43 K, Crystal 1, Small (less than 1 g) adiabatic calorimetry	274.38 J/K/mol
336.11 K, Crystal 1, Small (less than 1 g) adiabatic calorimetry	274.21 J/K/mol
337.62 K, Crystal 1, Small (less than 1 g) adiabatic calorimetry	274.79 J/K/mol
338.05 K, Crystal 1, Small (less than 1 g) adiabatic calorimetry	274.88 J/K/mol
339.81 K, Crystal 1, Small (less than 1 g) adiabatic calorimetry	275.29 J/K/mol
340 K, Crystal 1, Small (less than 1 g) adiabatic calorimetry	275.21 J/K/mol
341.94 K, Crystal 1, Small (less than 1 g) adiabatic calorimetry	275.79 J/K/mol
342 K, Crystal 1, Small (less than 1 g) adiabatic calorimetry	275.96 J/K/mol
343.89 K, Crystal 1, Small (less than 1 g) adiabatic calorimetry	276.54 J/K/mol
344.18 K, Crystal 1, Small (less than 1 g) adiabatic calorimetry	276.79 J/K/mol
345.84 K, Crystal 1, Small (less than 1 g) adiabatic calorimetry	277.2 J/K/mol
346.37 K, Crystal 1, Small (less than 1 g) adiabatic calorimetry	277.45 J/K/mol
347.78 K, Crystal 1, Small (less than 1 g) adiabatic calorimetry	277.79 J/K/mol
348.56 K, Crystal 1, Small (less than 1 g) adiabatic calorimetry	278.2 J/K/mol
349.73 K, Crystal 1, Small (less than 1 g) adiabatic calorimetry	278.37 J/K/mol
350.75 K, Crystal 1, Small (less than 1 g) adiabatic calorimetry	279.03 J/K/mol
351.68 K, Crystal 1, Small (less than 1 g) adiabatic calorimetry	278.87 J/K/mol
352.94 K, Crystal 1, Small (less than 1 g) adiabatic calorimetry	279.78 J/K/mol
353.63 K, Crystal 1, Small (less than 1 g) adiabatic calorimetry	279.37 J/K/mol
355.12 K, Crystal 1, Small (less than 1 g) adiabatic calorimetry	280.28 J/K/mol
355.58 K, Crystal 1, Small (less than 1 g) adiabatic calorimetry	280.45 J/K/mol
357.31 K, Crystal 1, Small (less than 1 g) adiabatic calorimetry	281.03 J/K/mol
357.53 K, Crystal 1, Small (less than 1 g) adiabatic calorimetry	281.03 J/K/mol
359.47 K, Crystal 1, Small (less than 1 g) adiabatic calorimetry	281.86 J/K/mol
359.5 K, Crystal 1, Small (less than 1 g) adiabatic calorimetry	282.03 J/K/mol
361.42 K, Crystal 1, Small (less than 1 g) adiabatic calorimetry	282.61 J/K/mol
361.71 K, Crystal 1, Small (less than 1 g) adiabatic calorimetry	282.53 J/K/mol
363.37 K, Crystal 1, Small (less than 1 g) adiabatic calorimetry	283.36 J/K/mol
363.9 K, Crystal 1, Small (less than 1 g) adiabatic calorimetry	283.52 J/K/mol
365.32 K, Crystal 1, Small (less than 1 g) adiabatic calorimetry	284.52 J/K/mol
366.08 K, Crystal 1, Small (less than 1 g) adiabatic calorimetry	284.69 J/K/mol
367.27 K, Crystal 1, Small (less than 1 g) adiabatic calorimetry	285.52 J/K/mol
